Test results taken from patent publication US7598293B2, “Compounds and their use in medicine, process for their preparation and pharmaceutical compositions containing them” (Dr. Reddy's Laboratories, Inc., priority 2001, dated 2009).
Where a name gives a salt, the structure may show the parent alone.

What was measured:
C57BL/KsJ-db/db mice = assay: Efficacy in genetic models: blood sugar and triglyceride lowering in db/db mice; assay type: in vivo, mouse; settings: 3 mg/kg oral, results after 6 days
Description: a) Efficacy in Genetic Models Mutation in colonies of laboratory animals and different sensitivities to dietary regimens has made the development of animal models with non-insulin dependent diabetes and hyperlipidemia associated with obesity and insulin resistance possible. Genetic models such as db/db and ob/ob (Diabetes, (1982) 31(1): 1-6) mice and zucker fa/fa rats have been developed by the various laboratories for understanding the pathophysiology of disease and testing the efficacy of new antidiabetic compounds (Diabetes, (1983) 32: 830-838; Annu. Rep. Sankyo Res. Lab. (1994). 46: 1-57). The homozygous animals, C57 BL/KsJ-db/db mice developed by Jackson Laboratory, US, are obese, hyperglycemic, hyperinsulinemic and insulin resistant (J. Clin. Invest., (1990) 85: 962-967), whereas heterozygous are lean and normoglycemic. In db/db model, mouse progressively develops insulinopenia with age, a feature commonly observed in late stages of human type II diabetes when blood sugar levels are insufficiently controlled. The state of pancreas and its course vary according to the models. Since this model resembles that of type II diabetes mellitus, the compounds of the present invention will be tested for blood sugar and triglycerides lowering activities.
Male C57BL/KsJ-db/db mice of 8 to 14 weeks age, having body weight range of 35 to 60 grams, bred at Dr. Reddy's Research Foundation (DRF) animal house, were used in the experiment. The mice are provided with standard feed (National Institute of Nutrition (NIN), Hyderabad, India) and acidified water, ad libitum. The animals having more than 350 mg/dl blood sugar will be used for testing. The number of animals in each group will be 4.
Test compounds are suspended on 0.25% carboxymethyl cellulose and administered to test group at a dose of 0.1 mg to 30 mg/kg through oral gavage daily for 6 days. The control group receives vehicle (dose 10 ml/kg). On 6th day the blood samples will be collected one hour after administration of test compounds/vehicle for assessing the biological activity.
The random blood sugar and triglyceride levels can be measured by collecting blood (100 μl) through orbital sinus, using heparinised capillary in tubes containing EDTA which was centrifuged to obtain plasma. The plasma glucose and triglyceride levels can be measured spectrometrically, by glucose oxidase and glycerol-3-PO4 oxidase/peroxidase enzyme (Dr. Reddy's Lab. Diagnostic Division Kits, Hyderabad, India) methods respectively.
The blood sugar and triglycerides lowering activities of the test compound are calculated according to the formula.
(§1) 1. Percent reduction in Blood sugar/triglycerides/total cholesterol will be calculated according to the formula:
(§2) [formula] • OC=Zero day control group value • OT=Zero day treated group value • TC=Test day control group value • TT=Test day treated group value

hPPARα = target: T1, hPPARα (Homo sapiens, UniProt Q07869); assay: Determination of hPPARα activity (GAL4 luciferase reporter, transfected HEK-293 cells); assay type: cell-based; settings: compound concentration 50 μM
T1 construct: expressed in transfected cells; host or cells: HEK-293
T1 sequence (Q07869 239-466 limits assumed): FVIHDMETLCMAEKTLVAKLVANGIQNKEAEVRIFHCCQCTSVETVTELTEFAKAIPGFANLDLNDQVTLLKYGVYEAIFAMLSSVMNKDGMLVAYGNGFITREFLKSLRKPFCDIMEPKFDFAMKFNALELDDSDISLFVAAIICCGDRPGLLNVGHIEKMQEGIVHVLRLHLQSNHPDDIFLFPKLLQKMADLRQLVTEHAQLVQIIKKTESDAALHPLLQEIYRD
Method: a) Determination of hPPARα activity Ligand binding domain of hPPARα was fused to DNA binding domain of Yeast transcription factor Gal 4 in eucaryotic expression vector. Using superfect (Qiagen, Germany) as transfecting reagent HEK-293 cells are transfected with this plasmid and a reporter plasmid harboring the luciferase gene driven by a GAL4 specific promoter. Compound can be added at different concentrations after 42 hrs of transfection and incubated overnight. Luciferase activity as a function of compound binding/activation capacity of PPARα will be measured using Packard Luclite kit (Packard, USA) in Top Count (Ivan Sadowski, Brendan Bell, Peter Broag and Melvyn Hollis. Gene. 1992. 118: 137-141; Superfect Transfection Reagent Handbook. February 1997. Qiagen, Germany).

hPPARγ1 = target: T2, hPPARγ1 (Homo sapiens, UniProt P37231); assay: Determination of hPPARγ activity (GAL4 luciferase reporter, transfected HEK-293 cells); assay type: cell-based; settings: compound concentration 1 μM
T2 construct: expressed in transfected cells; host or cells: HEK-293
T2 sequence (P37231 238-503 limits assumed): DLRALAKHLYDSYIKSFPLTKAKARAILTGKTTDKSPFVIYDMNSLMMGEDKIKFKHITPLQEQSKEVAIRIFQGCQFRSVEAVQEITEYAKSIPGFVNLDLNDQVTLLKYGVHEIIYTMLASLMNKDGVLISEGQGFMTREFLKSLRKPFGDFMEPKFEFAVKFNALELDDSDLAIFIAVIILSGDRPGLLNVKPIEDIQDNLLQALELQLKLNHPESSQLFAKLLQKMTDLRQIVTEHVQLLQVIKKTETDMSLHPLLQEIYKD
Method: b) Determination of hPPARγ activity Ligand binding domain of hPPARγ1 is fused to DNA binding domain of Yeast transcription factor GAL4 in eucaryotic expression vector. Using lipofectamine (Gibco BRL, USA) as transfecting reagent HEK-293 cells are transfected with this plasmid and a reporter plasmid harboring the luciferase gene driven by a GAL4 specific promoter. Compound can be added at 1 μM concentration after 48 hrs of transfection and incubated overnight. Luciferase activity as a function of drug binding/activation capacity of PPARγ1 will be measured using Packard Luclite kit (Packard, USA) in Packard Top Count (Ivan Sadowski, Brendan Bell, Peter Broag and Melvyn Hollis. Gene. 1992. 118: 137-141; Guide to Eukaryotic Transfections with Cationic Lipid Reagents. Life Technologies, GIBCO BRL, USA).

[1] = system: hypercholesterolemic Sprague Dawley rats; assay: Plasma triglyceride and cholesterol lowering activity in hypercholesterolemic rat models; assay type: in vivo; settings: 1 mg/kg oral, results after 3 days
Method: b) Plasma triglyceride and Cholesterol lowering activity in hypercholesterolemic rat models Male Sprague Dawley rats (NIN stock) were bred in DRF animal house. Animals were maintained under 12 hour light and dark cycle at 25±1° C. Rats of 180-200 gram body weight range were used for the experiment. Animals are made hypercholesterolemic by feeding 2% cholesterol and 1% sodium cholate mixed with standard laboratory chow [National Institute of Nutrition (NIN), Hyderabad, India] for 6 days. Throughout the experimental period the animals were maintained on the same diet (Petit, D., Bonnefis, M. T., Rey, C and Infante, R. Effects of ciprofibrate on liver lipids and lipoprotein synthesis in normo- and hyperlipidemic rats. Atherosclerosis. 1988. 74: 215-225).
The test compounds can be administered orally at a dose 0.1 to 30 mg/kg/day for 3 days. Control group was treated with vehicle alone (0.25% Carboxymethylcellulose; dose 10 ml/kg).
The blood samples can be collected in fed state 1 hour after drug administration on 0 and 3 day of compound treatment. The blood can be collected from the retro-orbital sinus through heparinised capillary in EDTA containing tubes. After centrifugation, plasma sample will be separated for total cholesterol, HDL and triglyceride estimations. Measurement of plasma triglyceride, total cholesterol and HDL were done using commercial kits (Dr. Reddy's Laboratory, Diagnostic Division, India). LDL and VLDL cholesterol can be calculated from the data obtained for total cholesterol, HDL and triglyceride. The reductions of various parameters examined are calculated according to the formula.
as §1, §2
2. LDL and VLDL, cholesterol levels will be calculated according to the formula:
[formula] VLDL cholesterol in mg/dl=[Total cholesterol-HDL cholesterol-LDL cholesterol]mg/dl.

Q: For `CCOC(Cc1ccc(NC(=O)CCc2ccc(OS(C)(=O)=O)cc2)cc1)C(=O)O` (centres unmarked) [Example 34], which melting point is on record?
A: 164 to 166 °C

Q: For `CC(C)OC(Cc1ccc(NCCCc2ccc(OS(C)(=O)=O)cc2)cc1)C(=O)O` (centres unmarked) (hydrate or solvate) [Example 21, 2-Isopropoxy-3-[4-{3-(4-methanesulfonyloxyphenyl)propylamino}phenyl]propionic acid], which melting point is on record?
A: 143 to 145 °C

Q: What does the source list for `CCOC(Cc1cccc(NCCCc2ccc(OS(C)(=O)=O)cc2)c1)C(=O)O` (centres unmarked) [Example 39, 2-Ethoxy-3-[3-{3-(4-methanesulfonyloxyphenyl)propylamino}phenyl]propionic acid Arginine salt]?
A: Reduction in Blood Glucose Level (%) (C57BL/KsJ-db/db mice): 56%; Triglyceride Lowering (%) (C57BL/KsJ-db/db mice): 36%

Q: With `CCOC(Cc1ccc(NC/C=C/c2ccc(OS(C)(=O)=O)cc2)cc1)C(=O)O` (stereo in doubt) [Example 25, (S)-2-Ethoxy-3-{4-[(E)-3-(4-methylsulfonyloxyphenyl)-2-prope-nylamino]phenyl}propionic acid] as the molecule, how does the melting point read?
A: 156 to 158 °C

Q: For `CCOC(=O)C(Cc1ccc(NC(=O)CCc2ccc(OS(C)(=O)=O)cc2)cc1)OCC` (centres unmarked) [Example 33, Ethyl 2-ethoxy-3-[4-(4-methylsulfonyloxyphenethylcarboxamido)phenyl]-propionate], which melting point is on record?
A: 90 to 92 °C

Q: With `CO[C@@H](Cc1ccc(NCCCc2ccc(OS(C)(=O)=O)cc2)cc1)C(=O)O` [Example 14, (S)-2-Methoxy-3-[4-{3-(4-methanesulfonyloxyphenyl)propylamino}phenyl]propionic acid] as the molecule, how does the PPARα (hPPARα) read?
A: 9.4

Q: What about the PPARγ (hPPARγ1) of the same molecule?
A: 0.7

Q: And the melting point?
A: 90 to 92 °C

Q: With `CO[C@@H](Cc1ccc(NC/C=C/c2ccc(OS(C)(=O)=O)cc2)cc1)C(=O)O` [Example 43, (S)-2-Methoxy-3-[4-{(E)-3-(4-methylsulfonyloxyphenyl)-2-propenylamino}phenyl]propionic acid] as the molecule, how does the “Increase in High Density Lipoprotein (%)” value [1] read?
A: 77%

Q: What about the “Reduction in Total Cholesterol (%)” value [1] of the same molecule?
A: 53%

Q: And the “Triglyceride Lowering (%)” value [1]?
A: 55%

Q: And the “Reduction in Low Density Lipoprotein (%)” value ([1]; LDL calculated from total cholesterol, HDL and triglyceride)?
A: 56%

Q: For `CCOC(=O)[C@H](Cc1ccc(NC/C=C/c2ccc(OS(C)(=O)=O)cc2)cc1)OC` [Example 42, (S) Ethyl 2-methoxy-3-[4-{(E)-3-(4-methylsulfonyloxyphenyl)-2-propenylamino}phenyl]propionate], which “Reduction in Blood Glucose Level (%)” value (C57BL/KsJ-db/db mice) is on record?
A: 63%

Q: And the “Triglyceride Lowering (%)” value (C57BL/KsJ-db/db mice)?
A: 56%

Q: Which melting point does the source give for `CCOC(Cc1ccc(NCCCc2ccc(OS(C)(=O)=O)cc2)cc1)C(=O)O` (centres unmarked) (hydrate or solvate) [Example 15, 2-Ethoxy-3-[4-{3-(4-methanesulfonyloxyphenyl)propylamino}phenyl]propionic acid] here?
A: 120 to 122 °C

Q: With `CCOC(Cc1ccc(NC(=O)/C=C/c2ccc(OS(C)(=O)=O)cc2)cc1)C(=O)O` (centres unmarked) [Example 32, 2-Ethoxy-3-{4-[(E)-2-(4-methylsulfonyloxyvhenyl)-1-ethenylcarboxamido]-phenyl}propionic acid] as the molecule, how does the melting point read?
A: 178 to 180 °C

Q: What does the source list for `CCOC(Cc1ccc(NC/C=C/c2ccc(OS(C)(=O)=O)cc2)cc1)C(=O)O` (centres unmarked) [Example 27, 2-Ethoxy-3-{4-[(E)-3-(4-methylsulfonyloxyphenyl)-2-propenylamino]phenyl}propionic acid]?
A: PPARα (hPPARα): 8.5; PPARγ (hPPARγ1): 0.8

Q: For `CCOC(Cc1ccc(NCCCc2ccc(OS(=O)(=O)c3ccc(C)cc3)cc2)cc1)C(=O)O` (centres unmarked) (hydrate or solvate) [Example 19, 2-ethoxy-3-[4-{3-(4-(toluene-4-sulfonyloxy)phenyl)propylamino}phenyl]propionate], which melting point is on record?
A: 98 to 100 °C

Q: For `CCOC(Cc1ccc(NCCCc2ccc(OS(C)(=O)=O)cc2)cc1)C(=O)O` (centres unmarked) [Example 15, 2-Ethoxy-3-[4-{3-(4-methanesulfonyloxyphenyl)propylamino}phenyl]propionic acid], which PPARα (hPPARα) is on record?
A: 6.1

Q: What about the PPARγ (hPPARγ1) of the same molecule?
A: 0.7

Q: Which melting point does the source give for `CO[C@@H](Cc1ccc(NC/C=C/c2ccc(OS(C)(=O)=O)cc2)cc1)C(=O)O` (hydrate or solvate) [Example 43, (S)-2-Methoxy-3-[4-{(E)-3-(4-methylsulfonyloxyphenyl)-2-propenylamino}phenyl]propionic acid] here?
A: 116 to 118 °C
